Measured values published in paper PMC11109155, “Cell-free biosynthesis and engineering of ribosomally synthesized lanthipeptides” (Nature Communications, 2024).

How the values were obtained:
[1] = tested on: Staphylococcus aureus RN4220; test: Agar diffusion assay (diameter of zone of inhibition); assay type: cell-based; conditions: for DZI, diameter of zone of inhibition: LB agar, 6 mm paper disks, 37 °C 16 h, peptides 1 mM (SalB & B-1: cell-free synthesized, purified mixture; SalB and SalB-1: produced in vivo, purified), Kan 50 μg/mL positive control, representative of n = 3; for Antimicrobial activity against Staphylococcus aureus RN4220 (in words): agar diffusion assay, in vivo and cell-free produced peptides, 1 mM
Description: Fig. 2 In vitro expression, modification, and maturation of salivaricin B in UniBioCat. a The gene cluster (top) and catalytic steps (bottom) of salivaricin B biosynthesis. Dha, dehydroalanine; Dhb, dehydrobutyrine; Abu, α-aminobutyric acid. b Western-blot analysis of the cell-free expressed precursor peptide (left: SboA, 7.8 kDa) and modification enzymes [right: SboM (113 kDa) and SboT (83 kDa) are co-expressed]. Peptides/enzymes are labeled with the anti-His antibody. M, protein marker; T, total protein; S, soluble protein. Results were reproduced three times independently; representative data are shown. c MALDI-TOF-MS analysis of the precursor peptide (left: 6x His-tagged SboA, [M + H]^+ m/z = 7355) and modified precursor peptides (right: dehydrated 6x His-tagged SboA, [M-H2O + H]^+ m/z = 7337, [M-2H2O + H]^+ m/z = 7319, and [M−4H2O + H]^+ m/z = 7283). d MALDI-TOF-MS (left), LC-MS (middle), and MS/MS (right) analysis of matured salivaricin B. e MALDI-TOF-MS (left), LC-MS (middle), and MS/MS (right) analysis of the analog salivaricin B−1 with one additional amino acid alanine at the N-terminus. f Antimicrobial activity assay of salivaricin B (SalB) and salivaricin B-1 (SalB-1). “SalB & B-1” was cell-free synthesized and purified for the activity assay (note that the sample used was a mixture of SalB and B-1 with a concentration of 1 mM for the test). For in vivo produced SalB and SalB-1, 1 mM of each purified SalB and SalB-1 was used for the activity assay. NC, negative control; Kan, kanamycin (50 μg/mL) as a positive control; DZI, diameter of zone of inhibition (in mm). Data shown representative of three independent experiments (n = 3). Source data are provided as a Source Data file. TEXT PRINTED IN THE PICTURE: (f) Kan: DZI: 22 | (f) SalB & B-1 (UniBioCat): DZI: 7.5 | (f) SalB (in vivo): DZI: 7.5 | (f) SalB-1 (in vivo): DZI: 9.5
Two approaches were used for testing antimicrobial activity, including solid agar plate diffusion and liquid medium cultivation. In the diffusion assay, the overnight cultivated indicator strain S. aureus RN4220 was mixed with the melted LB agar medium (a starting OD600 of 0.05). The mixture was poured onto the plate and allowed to solidify at room temperature for 30 min. Then, sterile paper disks (diameter 6 mm) were placed on the surface of the agar plate and 1 mM of each peptide was added to the paper disk. The plates were incubated at 37 °C for 16 h, and the diameter of the zone of inhibition (DZI, in mm) was measured for comparison. In the second approach, the assay was performed in 96-well plates, and cell-free synthesized mature peptides were directly used without purification. For the samples of salivaricin B variants, 80 μL of each sample (diluted if necessary) was mixed with 120 μL of LB medium, containing each variant at a roughly final concentration of 6–7 μM and the indicator strain S. aureus RN4220 (a starting OD600 of 0.02). For the samples of uncharacterized (Lan 1 - Lan 10) and three known (lacticin 481, ruminococcin A, and nukacin ISK-1) lanthipeptides, 80 μL of the cell-free reaction mixture was added directly to the liquid cultivation without quantification. The 96-well plates were incubated at 37 °C and 150 rpm for 12 h. During the cultivation, OD600 values were measured every 2 h and ΔOD600 was calculated to compare the antimicrobial activity of tested samples. In all assays, kanamycin was used as a positive for comparison.

[2] = tested on: S. aureus RN4220; test: Liquid medium cultivation in 96-well plates, growth inhibition as ΔOD600; assay type: cell-based, Staphylococcus aureus; conditions: peptides produced in vivo and purified, Supplementary Fig. 12 (50 μM, liquid) and Fig. 2f (1 mM, agar diffusion)
Description: Fig. 3 Generation of salivaricin B mutants and their antimicrobial activity. a Representative MALDI-TOF-MS analyses of single-site mutagenesis at the position of Q6 or L20. b Representative MALDI-TOF-MS analyses of two-site mutagenesis at the positions of Q6 and L20. In (a) and (b), salivaricin B-1 based variants are the most abundant products in all analyses, which are indicated with the [M + H]^+ ions. c Quantification of salivaricin B mutants that are synthesized in UniBioCat reactions (see Supplementary Table 5 for the yield of each peptide variant). d Antimicrobial activity assay showing ΔOD600 profiles of S. aureus RN4220 growth treated with single-site (top) and two-site (bottom) mutants. […]
Two approaches were used for testing antimicrobial activity, including solid agar plate diffusion and liquid medium cultivation. […] The plates were incubated at 37 °C for 16 h, and the diameter of the zone of inhibition (DZI, in mm) was measured for comparison. […] For the samples of uncharacterized (Lan 1 - Lan 10) and three known (lacticin 481, ruminococcin A, and nukacin ISK-1) lanthipeptides, 80 μL of the cell-free reaction mixture was added directly to the liquid cultivation without quantification. […] During the cultivation, OD600 values were measured every 2 h and ΔOD600 was calculated to compare the antimicrobial activity of tested samples. […]

[3] = tested on: S. aureus RN4220; test: MIC and IC50 assay with the indicator strain S. aureus RN4220; assay type: cell-based, Staphylococcus aureus; conditions: purified peptides produced in vivo
Protocol: We next sought to test the antimicrobial activity of the mutated salivaricin B variants against the indicator strain S. aureus RN4220. To compare their activity, we first determined the concentrations of all peptide variants synthesized in UniBioCat reactions (Fig. 3c and Supplementary Table 5) and added an equal amount of each variant to the cell culture in 96-well plates. During the cultivation, OD600 values were measured every 2 h for a total of 12 h. […] Based on the single-site mutagenesis and activity assay, we performed a second-round mutation with two-site mutagenesis at both Q6 and L20 using eight selected variants (the combination leads to 15 two-site mutated variants). All these new variants could be synthesized and detected by MALDI-TOF-MS (see Fig. 3b for representative analyses). […] To further verify their activity and compare to standard in vivo approaches, six variants including single- and two-site mutation were selected to be produced by in vivo expression/modification and in vitro digestion for maturation. […] Additionally, we evaluated the MIC and IC50 of four strong variants (see Supplementary Fig. 12 for SalB_Q6H, SalB_L20M, SalB_L20I-Q6H, and SalB_L20M-Q6H) against three other indicator strains, including Bacillus subtilis, Micrococcus luteus, and Lactococcus lactis.
MIC values were determined by using a broth microdilution method. […]

[4] = tested on: Lactococcus lactis; test: MIC (broth microdilution) and IC50 determination; assay type: cell-based; conditions: LB, 30 °C, 130 rpm
Protocol: (§1) MIC values were determined by using a broth microdilution method. Overnight cultures of each indicator strain were diluted to 5 × 10^5 CFU mL^−1 using fresh LB medium and distributed into 96-well plates. Then, the cells were treated with twofold serial dilutions of the purified peptides (i.e., salivaricin B and variants). The total volume of each cultivation was 200 μL per well, consisting of 175 μL bacteria cells and 25 μL diluted peptides. The final concentrations of each peptide were set at 0.12, 0.25, 0.5, 1, 2, 4, 8, and 16 μM. The positive growth control wells only contained bacterial cells without addition of peptides. The plates were incubated with 130 rpm at 37 °C for B. subtilis and M. luteus and 30 °C for L. lactic. After incubation, the lowest peptide concentration, which inhibited 90% of the bacterial growth, was recorded as the MIC. The growth curves were used to determine IC50 values with GraphPad Prism (version 10.2.1, GraphPad Software).
(§2) Supplementary Table 6 Minimal inhibitory concentrations (MIC) and IC50 of salivaricin B and variants.
(§3) Bacillus subtilis Micrococcus luteus Lactococcus lactis
(§4) Peptides MIC IC50 MIC IC50 MIC IC50
(§5) (μM) (μM) (μM) (μM) (μM) (μM)
(§6) Source data are provided as a Source Data file.

[5] = tested on: Micrococcus luteus; test: MIC (broth microdilution) and IC50 determination; assay type: cell-based; conditions: LB, 37 °C, 130 rpm
Protocol: as §1, §2, §3, §4, §5, §6

[6] = tested on: Bacillus subtilis; test: MIC (broth microdilution) and IC50 determination; assay type: cell-based; conditions: LB, 37 °C, 130 rpm
Protocol: as §1, §2, §3, §4, §5, §6

[7] = read-out: IC50 of salivaricin B, previous report; cited from earlier work
Protocol: We next sought to test the antimicrobial activity of the mutated salivaricin B variants against the indicator strain S. aureus RN4220. To compare their activity, we first determined the concentrations of all peptide variants synthesized in UniBioCat reactions (Fig. 3c and Supplementary Table 5) and added an equal amount of each variant to the cell culture in 96-well plates. During the cultivation, OD600 values were measured every 2 h for a total of 12 h. […] Based on the ...

[8] = broth microdilution, 5 × 10^5 CFU mL^−1, purified peptides 0.12–16 μM twofold dilutions, lowest concentration inhibiting 90% of growth
[9] = from growth curves, GraphPad Prism, purified peptides 0.12–16 μM

| Compound | DZI, diameter of zone of inhibition [1] [mm] | Antimicrobial activity against Staphylococcus aureus RN4220 (in words) [1] | Antimicrobial activity compared with salivaricin B, purified peptides (in words) [2] | IC50 [3] [µM] | MIC, Lactococcus lactis [4, 8] [µM] | IC50 [4, 9] [nM] | MIC, Micrococcus luteus [5, 8] [µM] | IC50 [5, 9] [nM] | MIC, Bacillus subtilis [6, 8] [µM] | IC50 [6, 9] [nM] | IC50 [7] [µM] |
| --- | --- | --- | --- | --- | --- | --- | --- | --- | --- | --- | --- |
| NC[C@H]1O[C@H](O[C@H]2[C@H](O)[C@@H](O[C@H]3O[C@H](CO)[C@@H](O)[C@H](N)[C@H]3O)[C@H](N)C[C@@H]2N)[C@H](O)[C@@H](O)[C@@H]1O [Kan, kanamycin, reference compound] | 22 | – | – | – | – | – | – | – | – | – | – |
| AGGGVIQAbuIAlaHEAlaRMNAlaWQFLFDhbAlaAlaS (bicyclic or more) [Salivaricin B-1, salivaricin B-1, salivaricin B-like peptide with one additional amino acid alanine at the N-terminus] | 9.5 | clear inhibitory effects on cell growth | even higher antimicrobial activity than salivaricin B | – | – | – | – | – | – | – | – |
| GGGVIQAbuIAlaHEAlaRMNAlaWQFLFDhbAlaAlaS (bicyclic or more) [Salivaricin B, salivaricin B, class II lanthipeptide naturally produced by Streptococcus salivarius K12; wild type, made cell-free or in vivo] | 7.5 | clear inhibitory effects on cell growth | – | > 8 | 4 | 1670 ± 80 | 2 | 1190 ± 50 | 4 | 1880 ± 10 | 8.64 |
